Assay results published in patent US7300939B2, “Substituted 1-propiolylpiperazine compounds, their preparation and use” (Gruenenthal GmbH, priority 2005, dated 2007).
pIC50: −log10 of the molar value.

Target: T1, mGluR5 receptor (Sus scrofa, UniProt I3LUI7)
T1 construct: from tissue; host or cells: pig brain halves without medulla, cerebellum and pons
Test: [3H]-MPEP binding in the mGluR5 receptor binding assay (pig brain homogenate)
Settings: for mGluR5-receptor (% inhibition 10 μM) in pigs: pig brain homogenate, 5 nM [3H]-MPEP; for pIC50: Table II, unit inferred
Description: I. Method the Determination of the Inhibition of the [^3H]-MPEP Binding in the mGluR5 Receptor Binding Assay
Pig brain homogenate is prepared by homogenization (Polytron PT 3000, Kinematica AG, 10,000 revolutions per minute 90 seconds) of pig brain halves without medulla, cerebellum and pons in a buffer solution having a pH of 8.0 (30 mM of hepes, Sigma, order no. H3375+1 tablet of Complete to 100 ml, Roche Diagnostics, order no. 1836145) in a ratio of 1:20 (brain weight/volume) and differential centrifugation at 900×g and 40,000×g. In each case 450 μg of protein from brain homogenate are incubated with 5 nM [^3H]-MPEP (Tocris, order no. R1212) (MPEP=2-methyl-6-(3-methoxyphenyl)ethynylpyridine) and the compounds to be investigated (10 μM in the test) in a buffer solution (as above) in 250 μl incubation batches in 96-well microtiter plates at room temperature 60 min.
Thereafter, the batches are filtered with the aid of a Brandel cell harvester (Brandel, Robotic 9600 model) onto Unifilter plates with glass fiber filter mats (Perkin Elmer, order no. 6005177) and then rinsed with buffer solution (as above) 3 times with 250 μl per sample each time. The filter plates are then dried 60 min at 55° C. 30 μl Ultima Gold™ scintillator (Packard BioScience, order no. 6013159) are subsequently added per well and, after 3 hours, the samples are measured on a β-counter (Mikrobeta, Perkin Elmer). The non-specific binding is determined by addition of 10 μM of MPEP (Tocris, order no. 1212).

T1 sequence (I3LUI7 19-1212): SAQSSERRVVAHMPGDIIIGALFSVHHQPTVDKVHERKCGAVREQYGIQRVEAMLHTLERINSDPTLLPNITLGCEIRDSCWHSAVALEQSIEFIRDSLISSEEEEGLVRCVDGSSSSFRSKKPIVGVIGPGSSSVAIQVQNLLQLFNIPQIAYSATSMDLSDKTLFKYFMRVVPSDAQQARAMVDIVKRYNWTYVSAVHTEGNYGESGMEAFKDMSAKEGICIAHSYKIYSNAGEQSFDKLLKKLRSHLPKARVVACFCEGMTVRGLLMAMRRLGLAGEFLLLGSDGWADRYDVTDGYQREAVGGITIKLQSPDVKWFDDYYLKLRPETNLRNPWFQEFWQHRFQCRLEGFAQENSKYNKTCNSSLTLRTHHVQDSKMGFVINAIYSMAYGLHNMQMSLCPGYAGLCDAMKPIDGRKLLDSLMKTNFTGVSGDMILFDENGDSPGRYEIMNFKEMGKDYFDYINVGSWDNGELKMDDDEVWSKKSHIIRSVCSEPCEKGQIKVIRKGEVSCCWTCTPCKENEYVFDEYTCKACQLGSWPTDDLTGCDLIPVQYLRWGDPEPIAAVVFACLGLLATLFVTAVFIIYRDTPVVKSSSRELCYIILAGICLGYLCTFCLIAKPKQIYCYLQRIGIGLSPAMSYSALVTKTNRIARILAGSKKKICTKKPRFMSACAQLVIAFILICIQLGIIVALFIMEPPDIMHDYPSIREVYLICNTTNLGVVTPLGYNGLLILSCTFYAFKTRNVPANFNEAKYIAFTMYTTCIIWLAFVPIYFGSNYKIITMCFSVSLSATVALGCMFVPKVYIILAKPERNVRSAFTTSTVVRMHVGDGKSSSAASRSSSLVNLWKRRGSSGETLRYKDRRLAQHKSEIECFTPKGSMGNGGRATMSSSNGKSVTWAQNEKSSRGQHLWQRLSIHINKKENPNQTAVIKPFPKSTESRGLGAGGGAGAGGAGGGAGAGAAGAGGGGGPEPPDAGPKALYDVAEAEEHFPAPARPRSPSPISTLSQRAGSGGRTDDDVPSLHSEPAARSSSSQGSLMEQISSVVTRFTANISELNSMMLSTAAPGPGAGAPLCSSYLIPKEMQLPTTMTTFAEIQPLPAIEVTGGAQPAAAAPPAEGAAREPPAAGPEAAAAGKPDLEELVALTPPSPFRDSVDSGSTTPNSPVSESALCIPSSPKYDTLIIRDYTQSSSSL

For `CSc1cccc(C#CC(=O)N2CCN(c3nccs3)CC2)c1` [Example AAA40, 4-(Thiazol-2-yl)-1-(3-(3-methylmercaptophenyl)propiolyl)piperazine], the “mGluR5-receptor (% inhibition 10 μM) in pigs” value was 80%.

For `Cc1ccccc1C#CC(=O)N1CCN(c2nc(-c3ccc(F)cc3)ns2)CC1` [CCC8, 4-(3-(4-Fluorophenyl)-1,2,4-thiadiazol-5-yl)-1-(3-(tol-2-yl)propiolyl)piperazine], the “mGluR5-receptor (% inhibition 10 μM) in pigs” value was 25%.

Work on `O=C(C#Cc1ccoc1)N1CCN(c2nccs2)CC1` [Example AAA74, 4-(Thiazol-2-yl)-1-(3-(3-furyl)propiolyl)piperazine] yielded a pIC50 of 5.50.

With `Cc1cccc(C#CC(=O)N2CCN(c3nc(C)cs3)CC2)c1` [CCC31, 4-(4-Methylthiazol-2-yl)-1-(3-(tol-3-yl)propiolyl)piperazine] the “mGluR5-receptor (% inhibition 10 μM) in pigs” value was 93%.

`CN(C)c1cccc(C#CC(=O)N2CCN(c3nccs3)CC2)c1` [Example AAA00113, 4-(Thiazol-2-yl)-1-(3-(3-dimethylaminophenyl)propiolyl)piperazine] was tested, and the “mGluR5-receptor (% inhibition 10 μM) in pigs” value was 27%.

For `COc1ccc(C#CC(=O)N2CCN(c3nccs3)CC2)cc1` [Example AAA14, 4-(Thiazol-2-yl)-1-(3-(4-methoxyphenyl)propiolyl)piperazine], the “mGluR5-receptor (% inhibition 10 μM) in pigs” value was 34%.

With `O=C(C#Cc1ccc(F)cc1)N1CCN(c2nccs2)CC1` [Example AAA61, 4-(Thiazol-2-yl)-1-(3-(4-fluorophenyl)propiolyl)piperazine] the “mGluR5-receptor (% inhibition 10 μM) in pigs” value was 76%.

In the case of `O=C(C#Cc1ccc2[nH]ccc2c1)N1CCN(c2nccs2)CC1` [Example AAA9, 4-(Thiazol-2-yl)-1-(3-(indol-5-yl)propiolyl)piperazine], the pIC50 was 6.15.

`O=C(C#Cc1ccccc1Cl)N1CCN(c2nccs2)CC1` [Example AAA23, 4-(Thiazol-2-yl)-1-(3-(2-chlorophenyl)propiolyl)piperazine] was tested, and the “mGluR5-receptor (% inhibition 10 μM) in pigs” value was 70%.

`CC(C)c1cccc(C#CC(=O)N2CCN(c3nccs3)CC2)c1` [Example AAA36, 4-(Thiazol-2-yl)-1-(3-(3-isopropylphenyl)propiolyl)piperazine] was tested, and the “mGluR5-receptor (% inhibition 10 μM) in pigs” value was 40%.

With `CC(C)(C)c1csc(N2CCN(C(=O)C#Cc3ccc(N)cc3)CC2)n1` [Example AAA00107, 4-(4-tert-Butylthiazol-2-yl)-1-(3-(4-aminophenyl)propiolyl)piperazine] the “mGluR5-receptor (% inhibition 10 μM) in pigs” value was 30%.

For `C[C@@H]1CN(c2nccs2)CCN1C(=O)C#Cc1ccccc1` [Example AAA65, (R)-2-Methyl-4-(thiazol-2-yl)-1-(3-phenylpropiolyl)piperazine], the “mGluR5-receptor (% inhibition 10 μM) in pigs” value was 93%.

With `O=C(C#Cc1ccccc1)N1CCN(c2nc(C(F)(F)F)cs2)CC1` [Example AAA93, 4-(4-Trifluoromethylthiazol-2-yl)-1-(3-phenylpropiolyl)piperazine] the “mGluR5-receptor (% inhibition 10 μM) in pigs” value was 52%.

In the case of `O=C(C#Cc1ccccc1)N1CCN(c2nc(Cc3ccc(F)cc3)ns2)CC1` [Example AAA85, 4-(3-(4-Fluorobenzyl)-1,2,4-thiadiazol-5-yl)-1-(3-phenylpropiolyl)piperazine], the “mGluR5-receptor (% inhibition 10 μM) in pigs” value was 93%.

`CS(=O)(=O)c1cccc(C#CC(=O)N2CCN(c3nccs3)CC2)c1` [Example AAA00116, 4-(Thiazol-2-yl)-1-(3-(3-methylsulfonylphenyl)propiolyl)piperazine] was tested, and the “mGluR5-receptor (% inhibition 10 μM) in pigs” value was 31%.

`O=C(C#Cc1ccccc1)N1CCN(c2ncc(Cl)s2)CC1` [Example AAA95, 4-(5-Chlorothiazol-2-yl)-1-(3-phenylpropiolyl)piperazine] was tested, and the “mGluR5-receptor (% inhibition 10 μM) in pigs” value was 58%.

In the case of `O=C(C#Cc1ccccc1)N1CCN(c2nc(Cl)cs2)CC1` [Example AAA94, 4-(4-Chlorothiazol-2-yl)-1-(3-phenylpropiolyl)piperazine], the “mGluR5-receptor (% inhibition 10 μM) in pigs” value was 91%.

In the case of `N#Cc1cccc(C#CC(=O)N2CCN(c3nccs3)CC2)c1` [Example AAA16, 4-(Thiazol-2-yl)-1-(3-(3-cyanophenyl)propiolyl)piperazine], the “mGluR5-receptor (% inhibition 10 μM) in pigs” value was 93%.
